The source of these data is patent US12590954B2, “Neural stem cell-induced differential medium and induction differentiation method” (IREGENE THERAPEUTICS, CO., LTD., priority 2020, dated 2026).

Data set [1] relates to Human pluripotent stem cells. Nature of the data set: Chemical induction of neural stem cells (neural rosette formation, cell morphology). The class given is cell-based. The source says:
Human pluripotent stem cells include embryonic pluripotent stem cells, such as the H19 cell line and human induced pluripotent stem cells. Wherein, the human induced pluripotent stem cells used in the present invention are obtained from the reprogramming of CD34^+ cells, which refers to “reprogramming culture medium and reprogramming induced pluripotent stem cell culture method” (the method in the patent ZL201910050800.7).
Human pluripotent stem cells are used to coat T25 cell culture flasks with Matrigel ([…] Technologies), and then placed in a 37° C. incubator for more than one hour after plating. Follow 1×10^6 Cells were seeded in T25 flasks for expansion and passage.
For neural induction, use 50 μg/mL poly-lysine (SIGMA, Cat. No.: P6407) to coat a 6-well culture plate, and incubate at 37° C. for more than 3 hours after plating; then use 5 μg/mL Laminin (SIGMA ALDRICH, Cat. No.: 12020) for further coat, and then place in a 37° C. incubator to incubate for more than 3 hours. When pluripotent stem cells reached 70% coverage, they were digested with EDTA at 37° C. for 5 min, and DMEM was used to stop cell digestion. Cells are washed and centrifuged at 2×10^5 the proportions of each flask and are re-seeded in T25 plates. Neural induction is performed using the medium of the present invention in combination with the neural inducing compound, and the medium is changed every day until the neural stem cell rosette is formed. […] Therefore, the single-molecule inducing method provided by this method can induce pluripotent stem cells to form neural rosette structures more efficiently and uniformly.
(§1) From the above results, it is known that the differentiation is not complete under the low concentration condition, and many different types of cells can be seen. However, neural stem cells obtained in high concentration condition are easily differentiated and cell stress appears.

The test system of data set [2] is major histocompatibility complex (MHC) genes. As to the kind of experiment: Q-PCR detection of MHC genes of induced neural stem cells. The class given is cell-based. As to conditions: compared with human pluripotent stem cells. The source says:
The major histocompatibility complex (MHC) genes of neural stem cells induced by LY2157299 was detected by Q-PCR method, and pluripotent stem cells (iPS) were used as control.

A further data set has as its system HLA-DR. Nature of the data set: Flow cytometry detection of HLA-DR antigens of induced neural stem cells. The class given is cell-based, human. As for the experimental part:
The HLA-DR antigens of neural stem cells induced by LY2157299 were detected by flow cytometry. HLA-DR is an MHC class II molecule whose expression is critical for the antigen-presenting function of cells and plays a key role in adoptive immune responses. The induced neural stem cells obtained in Example 2 were digested with EDTA, washed with DPBS, centrifuged to remove the supernatant, and 10^6 Cells were resuspended in 100 μL of diluted primary antibody (CD45 PerCP, Abeam, Cat. No. ab157309; HLA-DR FITC, CST, Cat. No. 54126), incubated on ice for 1 hour in the dark, centrifuged to remove supernatant, and cells were resuspended in 500 μL of antibody dilution buffer (CST) and analyzed on a flow cytometer. Samples incubated without primary antibody were used as controls. The results are shown in FIG. 7, FIG. 7a is a negative control, FIG. 7b is the HLA-DR detection result of the neural stem cells obtained by LY2157299 induction.
A general note: Flow cytometry measures light scatter and fluorescence of single cells or particles in a stream.

Data set [3] deals with neural stem cells. Nature of the data set: Q-PCR of marker genes during induction from pluripotent stem cells to neural stem cells. The class given is cell-based, human. As to conditions: different concentrations of LY2157299. As for the experimental part: Transcriptional changes of different marker genes during induction from pluripotent stem cells to neural stem cells were detected by using Q-PCR. The induced pluripotent stem cells used in this example are neural stem cells derived by LY inducing method and LSB inducing method, respectively. Neural stem cells were prepared as described previously using Rneasy Mini or Micro Kit (QIAGEN) for total RNA extraction, in which […] RNA was used to synthesize cDNA with superscript III First-Strand Synthesis System (Invitrogen).
SYBR Premix Ex Taq (TaKaRa) and Thermal Cycler Dice Real Time System TaKaRa) were used to perform labeling and reactions for Quantitative PCR, with beta-Actin as internal reference. All the above data were analyzed with the delta-Ct method. Each set of trials was tested using three sets of replicates, and variance statistics were performed.
as §1

Data set [4] relates to human induced pluripotent stem cells. As to the kind of experiment: Brain organoid formation and diameter. Type of data set: cell-based. To be noted: 12.5 μM LY2157299. The protocol:
Organoid culture was performed with human induced pluripotent stem cells. Organoid inducing medium was formulated as follows: NouvNeu basal medium supplemented with 12.5 μM […]. Induced pluripotent stem cells were digested to single cells by Accutase, seeded in 15-bottom-ultra-low attachment 96-well plates at a ratio of 9000 cells/[…] of brain organoid inducing medium per well. 10 μM ROCK inhibitor Y-27632 (Selleck, 51049) was added, and the cells were placed in a 37° C., 5% carbon dioxide cell incubator for 24 hours (Panasonic, model: MCO-18AC). Y-27632-free fresh organoid inducing medium was changed the following day until day 10. Day 10 the organoids were transferred to ultra-low-attachment 6-well plates and the medium was changed to NouvNeu001 basal medium supplemented with 2% B27 cell culture additive. The culture was conducted at 37° C. in a 5% CO2 cell culture incubator on a horizontal rotator at 80 rpm until day 120.
The control experiment was carried out according to the published method (Clair B et. al, Nat Methods. 2019, November; 16 (11): 1169-1175). N2B27 was used as the basic medium for organ like culture. […]
Organoids were photographed by Leica Dmi8. The brain organoids were photographed and their diameters were measured. […]

Data set [5] deals with Human pluripotent stem cells. As to the kind of experiment: CyQuant quantitative detection of cell viability during induction. The class given is cell-based. The protocol: The Cyquant assay was used to perform the quantitative detection of cell viability, thus investigating the effect of LY2157299 on the physiological state of the cells during long-term culture of the cells; Among them, the LSB method was used as the control group. 96-well light-tight cell culture plates were coated; after the coating was complete, cells were seeded separately at 5×10^4 cell number per well and three sets of parallel replicates were set (the average of three sets was calculated as data) to repeat the procedure of example 2.1. Wherein, the culture procedures described previously were incubated at 37° C. with 5% CO2. Samples were taken on days 1, 5, 10, 15 and 20 for cell viability assay using CyQuant Kit (Invitrogen, cat. No: X12223). The aforementioned assay was operated according to the instructions with a Spectramax i3 Multi-Mode Microplate Reader (VWR, model number: ID3-STD) for data reading.

The subject of data set [6] is neural stem cells. As to the kind of experiment: Directed differentiation of induced neural stem cells into neurons (immunofluorescence). Type of data set: cell-based, human. As for the experimental part: The neural stem cells obtained by the LY inducing method in Example 2 were subjected to directed differentiation in NouvNeu001 basal medium. For neuronal differentiation, use 50 μg/mL polylysine (SIGMA ALDRICH, Cat. No.: P6407) to coat a 6-well culture plate, and place the plate in a 37° C. incubator and incubate for more than 3 hours until cells are seeded.
The neural stem cells obtained in example 2 were seeded at a density of 1×10^5 the ratio per flask was inoculated in T25 flasks, and 3 μM CHIR99021 (Selleck, Cat. No.: S2924), 10 μM SU5402 (Tocris, Cat. No.: 3300/1), 10 μM DAPT (Selleck, Cat. No.: 52215) were added to NouvNeu001 basal medium. Fresh medium was replaced every 3 days until day 21. The above cultures were incubated at 37° C. with 5% CO2.
The neural stem cells obtained in example 2 were seeded at a density of 1×10^5 the ratio per flask was inoculated in T25 flasks, and 1 μM Purmorphamine Sellek, Cat. No.: S3042) and […] TGF-β3 (Novoprotein, Cat. No.: CJ44) were added to NouvNeu001 basal medium to culture neural stem cells. Fresh medium was replaced every 3 days until day 30. The above cultures were incubated at 37° C. with 5% CO2.
The neural stem cells obtained in example 2 were seeded at a density of 1×10^5 the ratio per flask was inoculated in T25 flasks, and 0.5 μM retinyl acetate (SIGMA ALDRICH, Cat. No.: R7782) was added to NouvNeu001 basal medium. Fresh medium was replaced every 3 days until day 21. The above cultures were incubated at 37° C. with 5% CO2.
After induction and differentiation, the cells were harvested and identified by immunofluorescence staining: cells were fixed with 4% paraformaldehyde at room temperature for 40 minutes, washed twice with DPBS buffer; then permeabilized with 0.1% Triton X-100 for 5 minutes, and buffered with DPBS The cells were then washed twice with DPBS buffer containing 10% horse serum and 0.1% Triton X-100 at 4° C. overnight; the cells were washed with DPBS buffer and then washed with 2% horse serum and 0:1% Triton X-100. […]

Data set [7] is described as follows: Freezing point osmometer: osmolality of the culture system. The class given is physicochemical. The protocol: A fully automated freezing point osmometer (FM-8P, Shanghai Yida Instruments Co., Ltd.) was used to detect the effects of different concentrations of sodium chloride on the osmolality of the culture system, and the specific operations were enrolled in the product instructions (FM-8P, Shanghai Vida Instruments Co., Ltd.). The test results are detailed in FIG. 2a. […] However, when the concentration reached […], the osmolality of the culture system already exceeded the cell culture limit of 320 mOsm/kg.

“Also recorded” adds a separate entry of the source. A value given as a limit tells only on which side of the number the result lay.

`Cc1cccc(-c2nn3c(c2-c2ccnc4ccc(C(N)=O)cc24)CCC3)n1` [LY2157299, 4-(2-(6-methylpyridin-2-yl)-5,6-dihydro-4h-pyrrolo[1,2-b]pyrazol-3-yl) quinoline-6-carboxamide]: in data set [1] (12.5 μM LY2157299), the “cell population obtained by chemical induction” value (“cell population obtained” below) is “a uniform cell population”. Also, in data set [1] (25 μM LY2157299), the “cell population obtained” value was “a mixed population of neural cells was obtained” and the “cell stress on chemical induction” value was “cells showed signs of stress with intracellular vacuoles”. Besides, the “cell population obtained” value in data set [1] (20 nm LY2157299) is “a mixed population of cells including neural cells was obtained”. In data set [2], the “expression of MHC associated genes in induced neural stem cells” value is on record as “significantly lower than human induced pluripotent stem cells; also recorded: extremely low levels”. The “HLA-DR antigen expression of induced neural stem cells” value in the data set on HLA-DR is on record as “do not express HLA-DR; also recorded: negative”. Moreover, in the data set with neural stem cells [3], the “Pax6 expression versus concentration (Q-PCR)” value is listed as “positively correlated with Pax6 expression” and the “apoptosis gene CASP3 versus concentration (Q-PCR)” value is listed as “positively correlated with apoptosis”. Further, the “generation of cerebral organoids” value in data set [4] is listed as “can induce the generation of cerebral organoids”. Further, the “number of neural cells induced (CyQuant)” value in data set [5] (samples on days 1, 5, 10, 15 and 20, LSB method as control) is “more number of neural cells compared with LSB method”. Besides, the “nociceptor neuron differentiation of induced neural stem cells: marker expression” value in the data set on neural stem cells [6] (CHIR99021, SU5402, DAPT in NouvNeu001 until day 21) is “able to express the nociceptor neuronal markers SCN11A and Nestin”. Besides, the “dopaminergic neuron differentiation of induced neural stem cells: marker expression” value with neural stem cells [6] (Purmorphamine and TGF-β3 in NouvNeu001 until day 30) is “could express the mature dopaminergic neuron specific markers Tyrosine Hydroxylase (TH) and Pitx3”. For the same molecule, the “photoreceptor neuron differentiation of induced neural stem cells: marker expression” value in the data set with neural stem cells [6] (retinyl acetate in NouvNeu001 until day 21) is “could express the photoreceptor neuronal markers OPSIN and CRX”.
As to “recombinant insulin: component of the basal medium”, the “rate of cell proliferation versus concentration (CyQuant)” value in data set [5] (different concentrations, long-term culture) was “positively correlated with the rate of cell proliferation”.
On to `[Cl-].[Na+]` [sodium chloride], for which, in data set [7] (different concentrations of sodium chloride), the “osmotic pressure of the culture system versus concentration” value is recorded as “linear increase”. Besides, the “osmolality of the culture system” value in data set [7] (sodium chloride concentration 1 μg/mL) is above 320 mOsm/kg.
